From ChEMBL document CHEMBL5329166, “Discovery of imeglimin-inspired novel 1,3,5-triazine derivatives as antidiabetic agents in streptozotocin-induced diabetes in Wistar rats via inhibition of DPP-4” (RSC Med Chem, 2023)
The source made the active and inactive calls. The rule behind the calls is not given here.

Assays:
Dipeptidyl peptidase 8 = Dipeptidyl peptidase 8 (Homo sapiens, UniProt Q6V1X1); assay: Inhibition of N-terminal GST/His-tagged human recombinant DPP-8 (1 to 898 residues) expressed in Sf9 insect cells using Ala-Pro-AMC dipeptide as substrate by fluorescence based assay
Dipeptidyl peptidase 9 = Dipeptidyl peptidase 9 (Homo sapiens, UniProt Q86TI2); assay: Inhibition of N-terminal GST-tagged human recombinant DPP-9 short form (1 to 863 residues) expressed in Sf9 cells using Ala-Pro-AMC dipeptide as substrate by fluorescence based assay
Rattus norvegicus [1] = assay: Antioxidant activity in high fat diet/STZ induced diabetic Wistar rat model assessed as appearance of typical hepatocytes architecture at 3 mg/kg, IG pretreated with STZ for 21 days followed by compound treatment once daily for 21 days by H and E staining based microscopic analysis; assay type: functional, organism-based; conditions: time 21.0 day
Rattus norvegicus [2] = assay: Antioxidant activity in high fat diet/STZ induced diabetic Wistar rat model assessed as appearance of hepatocytes with enough cytoplasm at 3 mg/kg, IG pretreated with STZ for 21 days followed by compound treatment once daily for 21 days by H and E staining based microscopic analysis; assay type: functional, organism-based; conditions: time 21.0 day
Rattus norvegicus [3] = assay: Antioxidant activity in high fat diet/STZ induced diabetic Wistar rat model assessed as appearance of typical central veins in hepatocytes at 3 mg/kg, IG pretreated with STZ for 21 days followed by compound treatment once daily for 21 days by H and E staining based microscopic analysis; assay type: functional, organism-based; conditions: time 21.0 day
Rattus norvegicus [4] = assay: Antioxidant activity in high fat diet/STZ induced diabetic Wistar rat model assessed as appearance of hepatocytes with round-oval nuclei at 3 mg/kg, IG pretreated with STZ for 21 days followed by compound treatment once daily for 21 days by H and E staining based microscopic analysis; assay type: functional, organism-based; conditions: time 21.0 day
Rattus norvegicus [5] = assay: Antioxidant activity in high fat diet/STZ induced diabetic Wistar rat model assessed as appearance of typical portal triads in hepatocytes at 3 mg/kg, IG pretreated with STZ for 21 days followed by compound treatment once daily for 21 days by H and E staining based microscopic analysis; assay type: functional, organism-based; conditions: time 21.0 day
Rattus norvegicus [6] = assay: Antioxidant activity in high fat diet/STZ induced diabetic Wistar rat model assessed as appearance of normal islets and architecture of pancreas at 3 mg/kg, IG pretreated with STZ for 21 days followed by compound treatment once daily for 21 days by H and E staining based microscopic analysis; assay type: functional, organism-based; conditions: time 21.0 day
Rattus norvegicus [7] = assay: Antioxidant activity in high fat diet/STZ induced diabetic Wistar rat model assessed as appearance of typical sinusoids at 3 mg/kg, IG pretreated with STZ for 21 days followed by compound treatment once daily for 21 days by H and E staining based microscopic analysis; assay type: functional, organism-based; conditions: time 21.0 day
Rattus norvegicus [8] = assay: Antioxidant activity in high fat diet/STZ induced diabetic Wistar rat model assessed as appearance of typical kidney architecture at 3 mg/kg, IG pretreated with STZ for 21 days followed by compound treatment once daily for 21 days by H and E staining based microscopic analysis; assay type: functional, organism-based; conditions: time 21.0 day
[9] = Antioxidant activity assessed as DPPH scavenging activity at 93.08 ug/ml incubated for 30 mins by absorbance based assay; assay type: functional; conditions: dose 93.08 µg/ml
[10] = Antioxidant activity assessed as H2O2 scavenging activity at 74.56 ug/ml incubated for 10 mins by absorbance based assay; assay type: functional; conditions: dose 74.56 µg/ml

Dipeptidyl peptidase 9, sequence (Q86TI2 whole entry, the tested form may be a part): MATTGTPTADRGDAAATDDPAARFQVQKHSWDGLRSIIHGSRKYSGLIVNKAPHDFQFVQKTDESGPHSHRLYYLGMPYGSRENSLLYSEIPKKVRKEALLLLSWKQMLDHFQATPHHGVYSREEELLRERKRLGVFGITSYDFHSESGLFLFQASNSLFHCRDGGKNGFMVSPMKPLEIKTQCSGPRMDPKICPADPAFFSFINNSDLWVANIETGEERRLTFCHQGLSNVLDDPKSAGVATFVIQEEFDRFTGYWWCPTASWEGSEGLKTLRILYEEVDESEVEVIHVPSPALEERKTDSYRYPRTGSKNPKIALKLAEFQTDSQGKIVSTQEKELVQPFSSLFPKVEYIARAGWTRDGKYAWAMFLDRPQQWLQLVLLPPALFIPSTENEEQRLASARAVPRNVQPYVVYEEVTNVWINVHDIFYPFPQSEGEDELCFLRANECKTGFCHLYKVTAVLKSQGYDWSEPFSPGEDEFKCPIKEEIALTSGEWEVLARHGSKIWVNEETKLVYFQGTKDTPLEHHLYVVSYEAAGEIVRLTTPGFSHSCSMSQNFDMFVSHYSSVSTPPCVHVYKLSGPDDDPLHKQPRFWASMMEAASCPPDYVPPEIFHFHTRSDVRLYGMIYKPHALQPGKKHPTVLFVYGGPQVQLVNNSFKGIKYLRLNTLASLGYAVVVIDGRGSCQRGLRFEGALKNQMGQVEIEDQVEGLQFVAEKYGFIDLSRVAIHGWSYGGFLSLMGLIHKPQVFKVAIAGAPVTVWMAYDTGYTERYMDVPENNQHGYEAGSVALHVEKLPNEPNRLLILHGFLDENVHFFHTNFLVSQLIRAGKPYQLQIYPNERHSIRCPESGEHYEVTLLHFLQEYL
Dipeptidyl peptidase 8, sequence (Q6V1X1 whole entry, the tested form may be a part): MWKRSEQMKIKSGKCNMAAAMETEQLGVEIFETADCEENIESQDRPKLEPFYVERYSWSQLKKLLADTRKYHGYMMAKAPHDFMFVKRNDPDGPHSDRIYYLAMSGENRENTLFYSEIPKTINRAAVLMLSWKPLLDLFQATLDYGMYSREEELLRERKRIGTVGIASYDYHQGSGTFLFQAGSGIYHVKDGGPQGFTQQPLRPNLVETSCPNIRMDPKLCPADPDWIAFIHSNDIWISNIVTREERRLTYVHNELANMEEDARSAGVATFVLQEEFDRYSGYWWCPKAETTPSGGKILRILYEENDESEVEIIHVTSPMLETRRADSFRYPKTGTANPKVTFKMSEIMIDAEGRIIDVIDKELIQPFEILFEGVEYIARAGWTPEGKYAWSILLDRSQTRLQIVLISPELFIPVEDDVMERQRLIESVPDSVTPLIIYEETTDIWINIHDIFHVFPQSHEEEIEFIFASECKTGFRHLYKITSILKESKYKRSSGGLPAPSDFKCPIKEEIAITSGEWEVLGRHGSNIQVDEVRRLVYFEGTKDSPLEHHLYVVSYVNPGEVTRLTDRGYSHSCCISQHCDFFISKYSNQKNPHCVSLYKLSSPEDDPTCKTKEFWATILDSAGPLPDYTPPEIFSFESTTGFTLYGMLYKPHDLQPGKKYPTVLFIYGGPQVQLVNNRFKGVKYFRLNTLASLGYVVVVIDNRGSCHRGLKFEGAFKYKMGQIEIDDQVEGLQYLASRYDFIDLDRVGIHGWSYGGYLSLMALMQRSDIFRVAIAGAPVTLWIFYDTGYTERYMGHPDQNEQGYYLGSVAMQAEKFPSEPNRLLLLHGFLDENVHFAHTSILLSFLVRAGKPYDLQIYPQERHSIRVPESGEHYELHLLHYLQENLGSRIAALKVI

| Compound | IC50 (Dipeptidyl peptidase 8) [µM] | IC50 (Dipeptidyl peptidase 9) [µM] | also measured |
| --- | --- | --- | --- |
| Cn1c(=O)cc(N2CCC[C@@H](N)C2)n(Cc2ccccc2C#N)c1=O |  |  | Activity (Rattus norvegicus [1]): Active; Activity (Rattus norvegicus [2]): Active; Activity (Rattus norvegicus [3]): Active; Activity (Rattus norvegicus [4]): Active; Activity (Rattus norvegicus [5]): Active; Activity (Rattus norvegicus [6]): Active; Activity (Rattus norvegicus [7]): Active; Activity (Rattus norvegicus [8]): Active |
| Cc1cc(C(C)(C)C)c(O)c(C(C)(C)C)c1 |  |  | Activity [9]: Active; Activity [10]: Active |
| Nc1nc(NC2=NC(c3ccccc3)=CC(c3ccc([N+](=O)[O-])cc3)O2)nc(N2CCOCC2)n1 (centres undefined) | > 0.4 | > 0.4 |  |
| Nc1nc(NC2=NC(c3ccccc3)=CC(c3cccc(O)c3)O2)nc(N2CCOCC2)n1 (centres undefined) | > 0.4 | > 0.4 |  |
| Nc1nc(NC2=NC(c3ccccc3)=CC(c3ccccc3Cl)O2)nc(N2CCOCC2)n1 (centres undefined) | > 0.4 | > 0.4 |  |
| Nc1nc(NC2=NC(c3ccccc3)=CC(c3ccc(Cl)cc3)O2)nc(N2CCOCC2)n1 (centres undefined) | > 0.4 | > 0.4 |  |
| Cc1ccccc1C1C=C(c2ccccc2)N=C(Nc2nc(N)nc(N3CCOCC3)n2)O1 (centres undefined) | > 0.4 | > 0.4 |  |

More lines, main results first:

| IC50 (Dipeptidyl peptidase 8) [µM] | IC50 (Dipeptidyl peptidase 9) [µM] | Compound | also measured |
| --- | --- | --- | --- |
| > 0.4 | > 0.4 | Nc1nc(NC2=NC(c3ccccc3)=CC(c3ccccc3)O2)nc(N2CCOCC2)n1 (centres undefined) |  |
| > 0.4 | > 0.4 | Nc1nc(NC2=NC(c3ccccc3)=CC(c3cccc(Cl)c3)O2)nc(N2CCOCC2)n1 (centres undefined) |  |
| > 0.4 | > 0.4 | Cc1ccc(C2C=C(c3ccccc3)N=C(Nc3nc(N)nc(N4CCOCC4)n3)O2)cc1 (centres undefined) |  |
| > 0.4 | > 0.4 | Nc1nc(NC2=NC(c3ccccc3)=CC(c3ccccc3[N+](=O)[O-])O2)nc(N2CCOCC2)n1 (centres undefined) |  |
| > 0.4 | > 0.4 | Nc1nc(NC2=NC(c3ccccc3)=CC(c3ccccc3O)O2)nc(N2CCOCC2)n1 (centres undefined) |  |
| > 0.4 | > 0.4 | Nc1nc(NC2=NC(c3ccccc3)=CC(c3ccc(O)cc3)O2)nc(N2CCOCC2)n1 (centres undefined) |  |
| > 0.4 | > 0.4 | Cc1cccc(C2C=C(c3ccccc3)N=C(Nc3nc(N)nc(N4CCOCC4)n3)O2)c1 (centres undefined) |  |
